The values below come from patent publication US7714134B2, “Compounds and use of tetrahydropyridothiophenes” (4SC AG, priority 2004, dated 2010).

The test system of assay [1] is RKO colon adenocarcinoma cells (RKOp27) arrested by expression of ectopic p27Kip1. Kind of assay: Alamar Blue cell viability assay, cell cycle specific mode of action, RKO p27 induced (arrested by Ponasterone A-induced p27Kip1). The assay is classed as cell-based. Conditions: Homo sapiens, RKOp27, 72 h, cells arrested by p27Kip1 induced with 10 μM Ponasterone A, 72 hours incubation. The protocol:
To determine the cell cycle specific mode of action, subdlones of RKO colon adenocarcinoma cells (RKOp27 or RKOp21 as described by Schmidt et al. in Oncogene 19, 2423-2429; 2000) are seeded into 96 well flat bottom plates at a density of 16000 cells per well in a volume of 50 μl per well in DMEM growth medium with 10% FCS containing 10 μM Ponasterone A. 24 hours after seeding the 50 μl each of the compound dilutions in DMEM medium are added into each well of the 96 Well plate. Each compound dilution is tested as quadruplicates. Wells containing untreated control cells are filled with 50 μl DMEM medium containing 1% DMSO. The cells are then incubated with the substances for 72 hours at 37° C. in a humidified atmosphere containing 5% carbon dioxide. To determine the viability of the cells, 10 μl of an Alamar Blue solution (Biosource) are added and the fluorescence was measured at an extinction of 544 nm and an emission of 590 nm. For the calculation of the cell viability the emission value from untreated cells is set as 100% viability and the emission rates of treated cells are set in relation to the values of untreated cells. Viabilities are expressed as % values. Viability is compared of proliferating cells grown in the absence of the inducer Ponasterone A, versus viability of cells arrested by the expression of ectopic p27Kip1 induced by Ponasterone A. The data of this experimental setting are summarized in table A (2nd column).

For assay [2], the system named is RKO (RKOp27) human colon adenocarcinoma cells. Nature of the assay: Alamar Blue cell viability assay, anti-proliferative/cytotoxic activity, RKO p27 uninduced. The assay is classed as cell-based. The settings on record: RKOp27, 72 h, proliferating cells, absence of the inducer Ponasterone A, 72 hours incubation. The protocol:
The anti-proliferative/cytotoxic activity of the compounds described herein, can be tested on subdlones of RKO (RKOp27) human colon adenocarcinoma cells (Schmidt et al., Oncogene 19, 2423-2429; 2000) using the Alamar Blue cell viability assay (described in O'Brien et al. Eur J Biochem 267, 5421-5426, 2000). The compounds are dissolved as 20 mM solutions in dimethylsulfoxide (DMSO) and subsequently diluted in semi-logarithmic steps. DMSO dilutions are further diluted 1:100 into Dulbecco's modified Eagle's medium (DMEM) containing 10% fetal calf serum to a final concentration twice as much as the final concentration in the test. RKO subclones are seeded into 96 well flat bottom plates at a density of 4000 cells per well in a volume of 50 µl per well. 24 hours after seeding the 50 μl each of the compound dilutions in DMEM medium are added into each well of the 96 Well plate. Each compound dilution is tested as quadruplicates. Wells containing untreated control cells are filled with 50 μl DMEM medium containing 1% DMSO. The cells are then incubated with the substances for 72 hours at 37° C. in a humidified atmosphere containing 5% carbon dioxide. To determine the viability of the cells, 10 μl of an Alamar Blue solution (Biosource) are added and the fluorescence is measured at an extinction of 544 nm and an emission of 590 nm. For the calculation of the cell viability the emission value from untreated cells is set as 100% viability and the emission rates of treated cells are set in relation to the values of untreated cells. Viabilities are expressed as % values.
The corresponding IC50 values of the compounds for anti-proliferative/cytotoxic activity are determined from the concentration-effect curves.
Representative IC50 values for anti-proliferation/cytotoxicity determined for the compounds mentioned and numbered as Examples in the examples above follow from the following table A (1st column), in which the numbers of the compound correspond to the numbers of the examples. Any or all of the compounds according to the present invention which are listed in the Table A, as well as their salts, are to be mentioned as a particular interesting subject of the present invention.
A general note: The colour change of resazurin is a common sign of viable cells or microbes.

On to `COc1ccc(OC(=O)N2CCc3c(sc(NC(=O)c4ccccc4)c3C#N)C2)cc1` [Compound 60, 3-Cyano-2-[(1-phenyl-methanoyl)-amino]-4,7-dihydro-5H-thieno[2,3-c]pyridine-6-carboxylic acid 4-methoxy-phenyl ester], for which the IC50 is > 60 µM in assay [1] and ≤ 3000 nM in assay [2].
For the compound `COC(=O)N1CCc2c(sc(NC(=O)c3ccccc3)c2C#N)C1` [Compound 54, 3-Cyano-2-[(1-phenyl-methanoyl)-amino]-4,7-dihydro-5H-thieno[2,3-c]pyridine-6-carboxylic acid methyl ester], the IC50 in assay [1] was > 60 µM; in assay [2] it was ≤ 3000 nM.
For `CC(=O)NCCOC(=O)N1CCc2c(sc(NC(=O)c3ccccc3)c2C#N)C1` [Compound 94, 3-Cyano-2-[(1-phenyl-methanoyl)-amino]4,7-dihydro-5H-thieno[2,3-c]pyridine-6-carboxylic acid 2-acetylamino-ethyl ester], in that order: > 100 µM and ≤ 3000 nM.
In the same order, the values of `N#Cc1c(NC(=O)c2ccccc2)sc2c1CCN(C(=O)Cc1c[nH]c3ccccc13)C2` [Compound 36, N-[3-Cyano-6-(2-1H-indol-3-yl-ethanoyl)-4,5,6,7-tetrahydro-thieno[2,3-c]pyridin-2-yl]-benzamide] are > 60 µM and ≤ 3000 nM.
Turning to `N#Cc1c(NC(=O)c2ccccc2)sc2c1CCN(C(=O)CCc1nccs1)C2` [Compound 33, N-[3-Cyano-6-(3thiazol-2-yl-propanoyl)-4,5,6,7-tetrahydro-thieno[2,3-c]pyridin-2-yl]-benzamide], the IC50 was > 60 µM in assay [1] and ≤ 3000 nM in assay [2].
For `N#Cc1c(NC(=O)c2ccccc2)sc2c1CCN(C(=O)OCC(O)CO)C2` (stereo not shown) [Compound 76, 3-Cyano-2-[(1-phenyl-methanoyl)-amino]-4,7-dihydro-5H-thieno[2,3-c]pyridine-6-carboxylic acid 2,3-dihydroxy-propyl ester], in that order: > 60 µM and ≤ 3000 nM.
As for `CC(C)COC(=O)N1CCc2c(sc(NC(=O)c3ccccc3)c2C#N)C1` [Compound 56, 3-Cyano-2-[(1-phenyl-methanoyl)-amino]-4,7-dihydro-5H-thieno[2,3-c]pyridine-6-carboxylic acid isobutyl ester], the IC50 in assay [1] is > 60 µM; in assay [2], ≤ 3000 nM.
For `COC(=O)CCC(=O)N1CCc2c(sc(NC(=O)c3ccccc3)c2C#N)C1` [Compound 22, 4-{3-Cyano-2-[(1-phenyl-methanoyl)-amino]-4,7-dihydro-5H-thieno[2,3-c]pyridin-6-yl}-4-oxo-butyric acid methyl ester], the figures for the IC50 in assay [1] and in assay [2] were > 100 µM and ≤ 2000 nM, respectively.
Turning to `N#Cc1c(NC(=O)c2ccccc2)sc2c1CCN(C(=O)NCCc1ccc([N+](=O)[O-])cc1)C2` [Compound 82, 3-Cyano-2-[(1-phenyl-methanoyl)amino]-4,7-dihydro-5H-thieno[2,3-c]pyridine-6-carboxylic acid [2-(4-nitro-phenyl)-ethyl]-amide], the 50% inhibitory concentration (IC50) in assay [1] was > 60 µM; in assay [2], ≤ 3000 nM.
In the same order, the values of `CCOC(=O)N1CCc2c(sc(NC(=O)c3ccccc3[N+](=O)[O-])c2C#N)C1` [Compound 46, 3-Cyano-2-{[1-(2-nitro-phenyl)-methanoyl]-amino}-4,7-dihydro-5H-thieno[2,3-c]pyridine-6-carboxylic acid ethyl ester] are > 60 µM and ≤ 3000 nM.
For `COCCOCC(=O)N1CCc2c(sc(NC(=O)c3ccccc3)c2C#N)C1` [Compound 40], in that order: > 60 µM and ≤ 3000 nM.
In the same order, the values of `CCOC(=O)N1CCc2c(sc(NC(=O)c3ccc(C)cc3)c2C#N)C1` [Compound 50, 3-Cyano-2-[(1-p-tolyl-methanoyl)-amino]-4,7-dihydro-5H-thieno[2,3-c]pyridine-6-carboxylic acid ethyl ester] are > 60 µM and ≤ 3000 nM.
As to `N#Cc1c(NC(=O)c2ccccc2)sc2c1CCN(C(=O)CCc1cccnc1)C2` [Compound 41, N-[3-Cyano-6-(3-pyridin-3-yl-propanoyl)-4,5,6,7-tetrahydro-thieno[2,3-c]pyridin-2-yl]-benzamide], the IC50 in assay [1] is > 60 µM; in assay [2], ≤ 3000 nM.
Turning to `CCOC(=O)N1CCc2c(sc(NC(=O)c3ccccc3C)c2C#N)C1` [Compound 52, 3-Cyano-2-[(1-o-tolyl-methanoyl)-amino]-4,7-dihydro-5H-thieno[2,3-c]pyridine-6-carboxylic acid ethyl ester], the values for the IC50 in assay [1] and in assay [2] were > 60 µM and ≤ 3000 nM, respectively.
As for `N#Cc1c(NC(=O)c2ccccc2)sc2c1CCN(C(=O)OCCN1CCOCC1)C2` [Compound 67, 3-Cyano-2-[(1-phenyl-methanoyl)-amino]4,7-dihydro-5H-thieno[2,3-c]pyridine-6-carboxylic acid 2-morpholin-4-yl-ethyl ester], the IC50 in assay [1] was > 60 µM; in assay [2] it was ≤ 3000 nM.
For `CC1(C)OCC(COC(=O)N2CCc3c(sc(NC(=O)c4ccccc4)c3C#N)C2)O1` (stereo not shown) [Compound 74, 3-Cyano-2-[(1-phenyl-methanoyl)-amino]-4,7-dihydro-5H-thieno[2,3-c]pyridine-6-carboxylic acid 2,2-dimethyl-[1,3]dioxolan-4-ylmethyl ester], in that order: > 60 µM and ≤ 3000 nM.
Take `N#Cc1c(NC(=O)c2ccccc2)sc2c1CCN(C(=O)OCCCc1cccnc1)C2` [Compound 72, 3-Cyano-2-[(1-phenyl-methanoyl)-amino]-4,7-dihydro-5H-thieno[2,3-c]pyridine-6-carboxylic acid 3-pyridin3-yl-propyl ester]: the IC50 was > 60 µM in assay [1] and ≤ 3000 nM in assay [2].
In the same order, the values of `N#Cc1c(NC(=O)c2ccccc2)sc2c1CCN(C(=O)OCCn1ccnc1)C2` [Compound 95] are > 100 µM and ≤ 3000 nM.
As for `CN(C)C(=O)CCC(=O)N1CCc2c(sc(NC(=O)c3ccccc3)c2C#N)C1` [Compound 83, N-[3-Cyano-6-(3-dimethylcarbamoyl-propanoyl)-4,5,6,7-tetrahydro-thieno[2,3-c]pyridin-2-yl]-benzamide], the concentration for half-maximal inhibition (IC50) was > 100 µM in assay [1] and ≤ 3000 nM in assay [2].
In the same order, the values of `COCCC(=O)N1CCc2c(sc(NC(=O)c3ccccc3)c2C#N)C1` [Compound 7, N-(3-Cyano-7-methoxyethylcarbonyl-4,5,6,7-tetrahydro-thien[2,3-c]pyridin-2-yl)-benzamide] are > 100 µM and ≤ 2000 nM.
For `COc1cc(OC)cc(C(=O)Nc2sc3c(c2C#N)CCN(C(C)=O)C3)c1` [Compound 26, N-(6-Acetyl-3-cyano-4,5,6,7-tetrahydro-thieno[2,3-c]pyridin-2-yl)-3,5-dimethoxy-benzamide], in that order: > 100 µM and ≤ 2000 nM.
Turning to `N#Cc1c(NC(=O)c2ccccc2)sc2c1CCN(C(=O)Cc1cccnc1)C2` [Compound 35, N-[3-Cyano-6-(2-pyridin-3-yl-ethanoyl)-4,5,6,7-tetrahydro-thieon[2,3-c]pyridin-2-yl]-benzamide], the results for the IC50 in assay [1] and in assay [2] were > 60 µM and ≤ 3000 nM, respectively.
In the same order, the values of `N#Cc1c(NC(=O)c2ccccc2)sc2c1CCN(C(=O)OCc1cccnc1)C2` [Compound 63, 3-Cyano-2-[(1-phenyl-methanoyl)-amino]-4,7-dihydro-5H-thieno[2,3-c]pyridine-6carboxylic acid pyridin-3-ylmethyl ester] are > 60 µM and ≤ 3000 nM.

One may read the IC50 as the concentration that inhibits the measured activity by half.
